In PubChem BioAssay AID2060894 (Molecular Pharmacology Branch, DTP, NCI, 2025):

Tested on: K12877-001-R-J1-PDC complex spheroid viability
Assay: Anticancer human tumor K12877-001-R-J1-PDC patient-derived lung adenocarcinoma cell line growth inhibition [RAS]
Conditions: for IC50: curve of first compound; for viability, T/C: stronger effect = lower value; active means viability on the fitted dose curve at most 10% of control; inactive means the rest
Outline: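 Multi-cell-type spheroids: tumor cells plus HUVEC endothelial cells and mesenchymal stem cells. RAS-pathway inhibitors were combined with targeted agents, each dosed in half-log steps down from clinical Cmax, or from 10 microM when Cmax was unknown.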

[1] = second compound 0.000949 µM, first compound 0.0316 µM
[2] = second compound 0.000949 µM, first compound 0.1 µM
[3] = second compound 0.000949 µM, first compound 0.316 µM
[4] = second compound 0.000949 µM, first compound 1 µM
[5] = second compound 0.000949 µM, first compound 3.16 µM
[6] = second compound 0.000949 µM, first compound 10 µM
[7] = second compound 0.003 µM, first compound 0.0316 µM
[8] = second compound 0.003 µM, first compound 0.1 µM
[9] = second compound 0.003 µM, first compound 0.316 µM
[10] = second compound 0.003 µM, first compound 1 µM
[11] = second compound 0.003 µM, first compound 3.16 µM
[12] = second compound 0.003 µM, first compound 10 µM
[13] = second compound 0.00949 µM, first compound 0.0316 µM
[14] = second compound 0.00949 µM, first compound 0.1 µM
[15] = second compound 0.00949 µM, first compound 0.316 µM
[16] = second compound 0.00949 µM, first compound 1 µM
[17] = second compound 0.00949 µM, first compound 3.16 µM
[18] = second compound 0.00949 µM, first compound 10 µM
[19] = second compound 0.03 µM, first compound 0.0316 µM
[20] = second compound 0.03 µM, first compound 0.1 µM
[21] = second compound 0.03 µM, first compound 0.316 µM
[22] = second compound 0.03 µM, first compound 1 µM
[23] = second compound 0.03 µM, first compound 3.16 µM
[24] = second compound 0.03 µM, first compound 10 µM
[25] = second compound 0.0949 µM, first compound 0.0316 µM
[26] = second compound 0.0949 µM, first compound 0.1 µM
[27] = second compound 0.0949 µM, first compound 0.316 µM
[28] = second compound 0.0949 µM, first compound 1 µM
[29] = second compound 0.0949 µM, first compound 3.16 µM
[30] = second compound 0.0949 µM, first compound 10 µM
[31] = second compound 0.3 µM, first compound 0.0316 µM
[32] = second compound 0.3 µM, first compound 0.1 µM
[33] = second compound 0.3 µM, first compound 0.316 µM
[34] = second compound 0.3 µM, first compound 1 µM
[35] = second compound 0.3 µM, first compound 3.16 µM
[36] = second compound 0.3 µM, first compound 10 µM
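Further: spheroids exposed to agents for one week before readout.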
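Wherever viability, T/C is given: tumour cells co-cultured with HUVEC and mesenchymal stem cells in spheroids.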

CC(C)NCC(C(=O)N1CCN(c2ncnc3c2C(C)CC3O)CC1)c1ccc(Cl)cc1 (stereo not drawn) + CCn1c(-c2cc(N3CCN(C)CC3)cnc2C(C)OC)c2c3cc(ccc31)-c1csc(n1)CC(NC(=O)C1CC1C)C(=O)N1CCCC(N1)C(=O)OCC(C)(C)C2
1910 nM: IC50 (second compound 0.00949 µM)
inactive: viability, T/C [1] 91.9% | viability, T/C [2] 90.3% | viability, T/C [3] 80.9% | viability, T/C [4] 104% | viability, T/C [5] 69.3% | viability, T/C [6] 44.3% | viability, T/C [7] 73.9% | viability, T/C [8] 82.8% | viability, T/C [9] 78.3% | viability, T/C [10] 88% | viability, T/C [11] 58% | viability, T/C [12] 29.3% | viability, T/C [13] 60.9% | viability, T/C [14] 74.3% | viability, T/C [15] 74.4% | viability, T/C [16] 74.9% | viability, T/C [17] 33.4% | viability, T/C [18] 19.6% | viability, T/C [19] 101% | viability, T/C [20] 103% | viability, T/C [21] 94.2% | viability, T/C [22] 52.9% | viability, T/C [23] 28.4% | viability, T/C [24] 17.1% | viability, T/C [25] 106% | viability, T/C [26] 104% | viability, T/C [27] 75.8% | viability, T/C [28] 39.5% | viability, T/C [29] 18.8% | viability, T/C [30] 12.7% | viability, T/C [31] 101% | viability, T/C [32] 78.6% | viability, T/C [33] 55% | viability, T/C [34] 27.2% | viability, T/C [35] 17.1% | viability, T/C [36] 10.9%
4360 nM: IC50 (second compound 0.003 µM)
7690 nM: IC50 (second compound 0.000949 µM)
1190 nM: IC50 (second compound 0.03 µM)
717 nM: IC50 (second compound 0.0949 µM)
360 nM: IC50 (second compound 0.3 µM)

CC(C)n1nc(-c2ccc3oc(N)nc3c2)c2c(N)ncnc21 + CCn1c(-c2cc(N3CCN(C)CC3)cnc2C(C)OC)c2c3cc(ccc31)-c1csc(n1)CC(NC(=O)C1CC1C)C(=O)N1CCCC(N1)C(=O)OCC(C)(C)C2
28.4 nM: IC50 (second compound 0.000949 µM)
13.9 nM: IC50 (second compound 0.03 µM)
9.11 nM: IC50 (second compound 0.0949 µM)
6.13 nM: IC50 (second compound 0.3 µM)
inactive: viability, T/C (second compound 0.000949 µM, first compound 0.000316 µM) 73.8% | viability, T/C (second compound 0.000949 µM, first compound 0.001 µM) 74.5% | viability, T/C (second compound 0.000949 µM, first compound 0.00316 µM) 95.7% | viability, T/C (second compound 0.000949 µM, first compound 0.01 µM) 104% | viability, T/C [1] 46.1% | viability, T/C [2] 24.8% | viability, T/C (second compound 0.003 µM, first compound 0.000316 µM) 71.2% | viability, T/C (second compound 0.003 µM, first compound 0.001 µM) 74% | viability, T/C (second compound 0.003 µM, first compound 0.00316 µM) 69.9% | viability, T/C (second compound 0.003 µM, first compound 0.01 µM) 90.8% | viability, T/C [7] 40.6% | viability, T/C [8] 22.1% | viability, T/C (second compound 0.00949 µM, first compound 0.000316 µM) 64.1% | viability, T/C (second compound 0.00949 µM, first compound 0.001 µM) 65.4% | viability, T/C (second compound 0.00949 µM, first compound 0.00316 µM) 76.6% | viability, T/C (second compound 0.00949 µM, first compound 0.01 µM) 75.4% | viability, T/C [13] 29.3% | viability, T/C [14] 17.3% | viability, T/C (second compound 0.03 µM, first compound 0.000316 µM) 77.1% | viability, T/C (second compound 0.03 µM, first compound 0.001 µM) 92.2% | viability, T/C (second compound 0.03 µM, first compound 0.00316 µM) 110% | viability, T/C (second compound 0.03 µM, first compound 0.01 µM) 61.1% | viability, T/C [19] 28% | viability, T/C [20] 16.2% | viability, T/C (second compound 0.0949 µM, first compound 0.000316 µM) 103% | viability, T/C (second compound 0.0949 µM, first compound 0.001 µM) 102% | viability, T/C (second compound 0.0949 µM, first compound 0.00316 µM) 76.5% | viability, T/C (second compound 0.0949 µM, first compound 0.01 µM) 49.1% | viability, T/C [25] 22.3% | viability, T/C [26] 13.6% | viability, T/C (second compound 0.3 µM, first compound 0.000316 µM) 79.1% | viability, T/C (second compound 0.3 µM, first compound 0.001 µM) 92.5% | viability, T/C (second compound 0.3 µM, first compound 0.00316 µM) 60.3% | viability, T/C (second compound 0.3 µM, first compound 0.01 µM) 40.3% | viability, T/C [31] 19.3% | viability, T/C [32] 11.7%
17.7 nM: IC50 (second compound 0.00949 µM)
23.4 nM: IC50 (second compound 0.003 µM)

CC(Nc1ccc2c(c1)OCCn1cc(N3C(=O)OCC3C(F)F)nc1-2)C(N)=O (stereo not drawn) + CCn1c(-c2cc(N3CCN(C)CC3)cnc2C(C)OC)c2c3cc(ccc31)-c1csc(n1)CC(NC(=O)C1CC1C)C(=O)N1CCCC(N1)C(=O)OCC(C)(C)C2
1250 nM: IC50 (second compound 0.03 µM)
inactive: viability, T/C [1] 80.9% | viability, T/C [2] 81.2% | viability, T/C [3] 81.5% | viability, T/C [4] 72.4% | viability, T/C [5] 62.2% | viability, T/C [6] 56% | viability, T/C [7] 71.6% | viability, T/C [8] 68.2% | viability, T/C [9] 63.4% | viability, T/C [10] 68.3% | viability, T/C [11] 62.9% | viability, T/C [12] 45.5% | viability, T/C [13] 72.7% | viability, T/C [14] 68.9% | viability, T/C [15] 70.6% | viability, T/C [16] 69.5% | viability, T/C [17] 59.1% | viability, T/C [18] 29.9% | viability, T/C [19] 94.3% | viability, T/C [20] 82.6% | viability, T/C [21] 64.1% | viability, T/C [22] 52.6% | viability, T/C [23] 42.7% | viability, T/C [24] 20% | viability, T/C [25] 80.3% | viability, T/C [26] 61.2% | viability, T/C [27] 43.8% | viability, T/C [28] 35.8% | viability, T/C [29] 23.7% | viability, T/C [30] 12% | viability, T/C [31] 65.9% | viability, T/C [32] 40.2% | viability, T/C [33] 32.2% | viability, T/C [34] 30.3% | viability, T/C [35] 19.1% | viability, T/C [36] 8.63%
4590 nM: IC50 (second compound 0.00949 µM)
249 nM: IC50 (second compound 0.0949 µM)
77.5 nM: IC50 (second compound 0.3 µM)
> 10000 nM: IC50 (second compound 0.000949 µM)
7420 nM: IC50 (second compound 0.003 µM)

C[C@@H](NC(=O)c1ncnc(N)c1Cl)c1ncc(C(=O)Nc2cc(C(F)(F)F)c(Cl)cn2)s1 + CCn1c(-c2cc(N3CCN(C)CC3)cnc2C(C)OC)c2c3cc(ccc31)-c1csc(n1)CC(NC(=O)C1CC1C)C(=O)N1CCCC(N1)C(=O)OCC(C)(C)C2
inactive: viability, T/C [1] 85.3% | viability, T/C [2] 85.3% | viability, T/C [3] 81.8% | viability, T/C [4] 84.3% | viability, T/C [5] 89.9% | viability, T/C [6] 75.3% | viability, T/C [7] 72.5% | viability, T/C [8] 78.3% | viability, T/C [9] 70.8% | viability, T/C [10] 83.6% | viability, T/C [11] 77.2% | viability, T/C [12] 83.2% | viability, T/C [13] 66.4% | viability, T/C [14] 62.7% | viability, T/C [15] 67.8% | viability, T/C [16] 69.5% | viability, T/C [17] 70.1% | viability, T/C [18] 68.8% | viability, T/C [19] 62.2% | viability, T/C [20] 58.3% | viability, T/C [21] 60% | viability, T/C [22] 68.3% | viability, T/C [23] 66.3% | viability, T/C [24] 112% | viability, T/C [25] 101% | viability, T/C [26] 89.7% | viability, T/C [27] 97.8% | viability, T/C [28] 106% | viability, T/C [29] 129% | viability, T/C [30] 121% | viability, T/C [31] 100% | viability, T/C [32] 100% | viability, T/C [33] 103% | viability, T/C [34] 111% | viability, T/C [35] 97.8% | viability, T/C [36] 111%
> 10000 nM: IC50 (second compound 0.000949 µM) | IC50 (second compound 0.003 µM) | IC50 (second compound 0.00949 µM) | IC50 (second compound 0.03 µM) | IC50 (second compound 0.0949 µM) | IC50 (second compound 0.3 µM)
